Reference: US20230265091A1, “COMPOUNDS WHICH INHIBIT RNA POLYMERASE” (The Johns Hopkins University, priority 2020, published 2023)
Where a name gives a salt, the structure may show the parent alone.

test system: RPA194 (RNA polymerase I, Pol I); assay: RPA194 destruction / Pol I inhibition, high-content imaging in A375 cells; type: cell-based; conditions: A375 cells treated for 4 hours, top concentration 10 μM; anti-RPA194 immunofluorescence; pIC50 >= 5.02 deemed a Pol I inhibitor
Protocol: Cell culture: A375 cells (CRL-1619, ATCC) were grown in DMEM (GTBCO) supplemented with […] fetal bovine serum (GIBCO) in 5% CO2 at 37° C.
Cell treatment and Imaging: 18 hours post-seeding in cell carrier black 384-well plates (PerkinElmer) at 15 000 cells/well, A375 cells were treated for 4 hours with a positive control or test compounds (9 serial semi-log dilutions, top concentration 10 μM). Upon treatment A375 cells were (i) fixed for 15 min at RT with 4% of paraformaldehyde, (ii) permeabilized for 20 min at RT with 0.1-0.5% of NP-40, (iii) incubated with primary antibodies at 4° C.: anti-RPA194 (1:1000-1:1250 dilution, sc-48385, Santa Cruz Biotechnology) and anti-gH2Ax (1:5000 dilution, 81299, Abcam or 1:4000, JBW302, Millipore) (iv) incubated for 1 h at RT with Hoechst (1:5000 dilution, H3570, ThermoFisher) and secondary antibodies: anti-mouse-AlexaFluor488 (1:2000 dilution, A11001, ThermoFisher) and anti-rabbit-AlexaFluor647 (1:2000 dilution, A21443, ThermoFisher) or goat anti-mouse AlexaFluor-594 (1:1000 dilution). Images were acquired on an Operetta CLS High-Content Analysis System (PerkinElmer) (40× objective; 9 fields/well) and processed using the Columbus Image Analysis System (PerkinElmer) or by using Molecular Devices ImageXpress Micro XLS High Content Imager and MetaXpress high-content acquisition and analysis software.
In the table below, (+) is associated with a pIC50 5.02 to 5.8; (++) with pIC50 5.8 to 6.3; and plus sing (+++) with a pIC50 above 6.3.

| Structure (SMILES) | Activity Range (pIC50) |
| --- | --- |
| CC(C)N1CCCCC1CNC(=O)c1cccn2c(=O)c3cc4ccccc4cc3nc12 (centres unmarked) [Compound 106, N-((1-isopropylpiperidin-2-yl)methyl)-12-oxo-12H-benzo[g]pyrido[2,1-b]quinazoline-4-carboxamide hydrochloride] | + ((+) is associated with a pIC50 5.02 to 5.8) |
| CN1CCCC1CNC(=O)c1cccn2c(=O)c3cc4ccccc4cc3nc12 (centres unmarked) [Compound 107, N-((1-methylpyrrolidin-2-yl)methyl)-12-oxo-12H-benzo[g]pyrido[2,1-b]quinazoline-4-carboxamide hydrochloride] | + ((+) is associated with a pIC50 5.02 to 5.8) |
| CN1CCOCC1CNC(=O)c1cccn2c(=O)c3cc4ccccc4cc3nc12 (centres unmarked) [Compound 108, N-((4-methylmorpholin-3-yl)methyl)-12-oxo-12H-benzo[g]pyrido[2,1-b]quinazoline-4-carboxamide hydrochloride] | + ((+) is associated with a pIC50 5.02 to 5.8) |
| N#CC1CCN(CCNC(=O)c2cccn3c(=O)c4cc5ccccc5cc4nc23)CC1 [Compound 111, N-(2-(4-cyanopiperidine-1-yl)ethyl)-12-oxo-12H-benzo[g]pyrido[2,1-b]quinazoline-4-carboxamide hydrochloride] | + ((+) is associated with a pIC50 5.02 to 5.8) |
| O=C(NCCN1CCSCC1)c1cccn2c(=O)c3cc4ccccc4cc3nc12 [Compound 112, 12-oxo-N-(2-thiomorpholinoethyl)-12H-benzo[g]pyrido[2,1-b]quinazoline-4-carboxamide hydrochloride] | + ((+) is associated with a pIC50 5.02 to 5.8) |
| CN(CCC#N)CCNC(=O)c1cccn2c(=O)c3cc4ccccc4cc3nc12 [Compound 114, N-(2-((2-cyanoethyl)(methyl)amino)ethyl)-12-oxo-12H-benzo[g]pyrido[2,1-b]quinazoline-4-carboxamide hydrochloride] | + ((+) is associated with a pIC50 5.02 to 5.8) |
| COC(=O)N1CCN(CCNC(=O)c2cccn3c(=O)c4cc5ccccc5cc4nc23)CC1 [Compound 115, methyl 4-(2-(12-oxo-12H-benzo[g]pyrido[2,1-b]quinazoline-4-carboxamido)ethyl)piperazine-1-carboxylate hydrochloride] | + ((+) is associated with a pIC50 5.02 to 5.8) |
| O=C(NCCN1CCC(F)C1)c1cccn2c(=O)c3cc4ccccc4cc3nc12 (centres unmarked) [Compound 117, N-(2-(3-fluoropyrrolidin-1-yl)ethyl)-12-oxo-12H-benzo[g]pyrido[2,1-b]quinazoline-4-carboxamide hydrochloride] | + ((+) is associated with a pIC50 5.02 to 5.8) |

The remaining lines, values ahead:

| Activity Range (pIC50) | Structure (SMILES) |
| --- | --- |
| ++ ((++) with pIC50 5.8 to 6.3) | O=C(NCC1CCCC(CO)N1)c1cccn2c(=O)c3cc4ccccc4cc3nc12 (centres unmarked) [Compound 101, N-((6-(hydroxymethyl)piperidin-2-yl)methyl)-12-oxo-12H-benzo[g]pyrido[2,1-b]quinazoline-4-carboxamide hydrochloride] |
| ++ ((++) with pIC50 5.8 to 6.3) | O=C(NCC1CCCN1)c1cccn2c(=O)c3cc4ccccc4cc3nc12 (centres unmarked) [Compound 102, 12-oxo-N-(pyrrolidin-2-ylmethyl)-12H-benzo[g]pyrido[2,1-b]quinazoline-4-carboxamide trifluoroacetate] |
| ++ ((++) with pIC50 5.8 to 6.3) | CC(NC(=O)c1cccn2c(=O)c3cc4ccccc4cc3nc12)C1CCCCN1 (centres unmarked) [Compound 103, 12-oxo-N-(1-(piperidin-2-yl)ethyl)-12H-benzo[g]pyrido[2,1-b]quinazoline-4-carboxamide hydrochloride] |
| ++ ((++) with pIC50 5.8 to 6.3) | O=C(NCC1CCCCN1)c1cccn2c(=O)c3cc4ccccc4cc3nc12 (centres unmarked) [Compound 104, 12-oxo-N-(piperidin-2-ylmethyl)-12H-benzo[g]pyrido[2,1-b]quinazoline-4-carboxamide hydrochloride] |
| ++ ((++) with pIC50 5.8 to 6.3) | CCN1CCCCC1CNC(=O)c1cccn2c(=O)c3cc4ccccc4cc3nc12 (centres unmarked) [Compound 105, N-((1-ethylpiperidin-2-yl)methyl)-12-oxo-12H-benzo[g]pyrido[2,1-b]quinazoline-4-carboxamide hydrochloride] |
| ++ ((++) with pIC50 5.8 to 6.3) | O=C(NCCN1CC[C@H](O)C1)c1cccn2c(=O)c3cc4ccccc4cc3nc12 [Compound 109, (S)-N-(2-(3-hydroxypyrrolidin-1-yl)ethyl)-12-oxo-12H-benzo[g]pyrido[2,1-b]quinazoline-4-carboxamide hydrochloride] |
| +++ ((+++) with a pIC50 above 6.3) | O=C(NCCN1CC[C@@H](O)C1)c1cccn2c(=O)c3cc4ccccc4cc3nc12 [Compound 110, (R)-N-(2-(3-hydroxypyrrolidin-1-yl)ethyl)-12-oxo-12H-benzo[g]pyrido[2,1-b]quinazoline-4-carboxamide hydrochloride] |
| ++ ((++) with pIC50 5.8 to 6.3) | O=C(NCCN1CCC(O)(O)CC1)c1cccn2c(=O)c3cc4ccccc4cc3nc12 [Compound 113, N-(2-(4,4-dihydroxypiperidin-1-yl)ethyl)-12-oxo-12H-benzo[g]pyrido[2,1-b]quinazoline-4-carboxamide hydrochloride] |
| ++ ((++) with pIC50 5.8 to 6.3) | O=C(NCCN1CCC(F)CC1)c1cccn2c(=O)c3cc4ccccc4cc3nc12 [Compound 116, N-(2-(4-fluoropiperidin-1-yl)ethyl)-12-oxo-12H-benzo[g]pyrido[2,1-b]quinazoline-4 carboxamide hydrochloride] |
